Measured values from ChEMBL document CHEMBL2331155, “Polycyclic hybrid isoprenoids from a reed rhizosphere soil derived Streptomyces sp. CHQ-64” (J Nat Prod, 2013).
Active and inactive are the calls of the source. No cut-off for these calls is given here.

What was measured:
[1] = test system: HCT-8; experiment: Cytotoxicity against human HCT8 cells by MTT assay; type: functional, cell-based
[2] = test system: A549; experiment: Cytotoxicity against human A549 cells by MTT assay; type: functional, cell-based
[3] = test system: A2780; experiment: Cytotoxicity against human A2780 cells by MTT assay; type: functional, cell-based
[4] = test system: Bel-7402; experiment: Cytotoxicity against human Bel7402 cells by MTT assay; type: functional, cell-based
[5] = test system: BGC-823; experiment: Cytotoxicity against human BGC823 cells by MTT assay; type: functional, cell-based
[6] = target: Protein kinase C alpha type (Homo sapiens) (UniProt P17252); experiment: Binding affinity to PKC alpha (unknown origin)
[7] = target: T1, DNA topoisomerase 1 (Homo sapiens) (UniProt P11387); experiment: Binding affinity to topoisomerase 1 (unknown origin)
T1 sequence (whole entry): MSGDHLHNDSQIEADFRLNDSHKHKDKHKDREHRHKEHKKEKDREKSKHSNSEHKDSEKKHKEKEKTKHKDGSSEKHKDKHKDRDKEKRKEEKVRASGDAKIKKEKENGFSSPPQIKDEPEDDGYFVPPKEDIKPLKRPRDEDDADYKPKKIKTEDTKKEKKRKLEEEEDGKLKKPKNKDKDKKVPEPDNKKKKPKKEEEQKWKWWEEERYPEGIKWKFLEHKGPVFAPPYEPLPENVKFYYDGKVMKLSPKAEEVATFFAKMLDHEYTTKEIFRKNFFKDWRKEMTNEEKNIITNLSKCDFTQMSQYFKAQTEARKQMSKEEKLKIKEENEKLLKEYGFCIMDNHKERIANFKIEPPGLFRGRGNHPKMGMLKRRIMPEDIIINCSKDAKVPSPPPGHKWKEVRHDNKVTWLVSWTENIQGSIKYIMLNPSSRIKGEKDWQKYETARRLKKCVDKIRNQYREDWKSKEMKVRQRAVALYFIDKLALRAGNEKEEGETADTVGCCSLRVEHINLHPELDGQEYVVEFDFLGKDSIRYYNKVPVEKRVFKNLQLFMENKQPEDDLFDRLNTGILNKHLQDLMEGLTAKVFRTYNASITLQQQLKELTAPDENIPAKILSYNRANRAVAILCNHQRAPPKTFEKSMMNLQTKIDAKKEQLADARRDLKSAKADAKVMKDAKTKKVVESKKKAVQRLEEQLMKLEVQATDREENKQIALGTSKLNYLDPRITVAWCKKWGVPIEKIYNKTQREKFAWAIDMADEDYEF

[8] = species on record: Homo sapiens; experiment: Inhibition of NF-kappaB (unknown origin) expressed in LPS-stimulated Raw 264.7 cells pretreated for 2 hrs measured after 4 hrs of LPS-challenge by luciferase reporter assay; type: cell-based

Row | Activity [6] | Activity [7] | Structure (SMILES) | IC50 [1] [µM] | IC50 [2] [µM] | IC50 [3] [µM] | IC50 [4] [µM] | IC50 [5] [µM] | inhibition [8]
1 | inactive | inactive | CC(C)[C@H]1C(=O)N[C@@H](C[C@]23C[C@H]4C(=C[C@H]2N(C=O)c2ccccc23)CC[C@H]2C(C)(C)CCC[C@]42C)C(=O)N1C (mixture of isomers) [INDOTERTINE B] | 6.96 | 4.88 | > 10 | > 10 | > 10 | inactive
2 | inactive | inactive | C=C1CC[C@H]2C(C)(C)CCC[C@]2(C)[C@H]1C[C@@]12C[C@H]3C(=O)N(C)[C@@H](C(C)C)C(=O)N3[C@@H]1N(C=O)c1ccccc12 [DRIMENTINE H] | > 10 | > 10 | > 10 | > 10 | > 10 | inactive
3 | – | – | CC(=O)O[C@H]1C(=O)[C@@]2(C)[C@H]([C@H](OC(=O)c3ccccc3)[C@]3(O)C[C@H](OC(=O)[C@H](O)[C@@H](NC(=O)c4ccccc4)c4ccccc4)C(C)=C1C3(C)C)[C@]1(OC(C)=O)CO[C@@H]1C[C@@H]2O [PACLITAXEL] | – | – | < 0.001 | 0.006 | < 0.001 | –

Row | Structure (SMILES) | Activity [6] | Activity [7] | IC50 [1] [µM] | IC50 [2] [µM] | IC50 [3] [µM] | IC50 [4] [µM] | IC50 [5] [µM] | inhibition [8]
4 | C=C1CC[C@H]2C(C)(C)CCC[C@]2(C)[C@H]1C[C@@]12C[C@H]3C(=O)N4CCC[C@H]4C(=O)N3[C@@H]1Nc1ccccc12 [DRIMENTINE C] | inactive | inactive | > 10 | > 10 | > 10 | > 10 | > 10 | inactive
